Measurements: ChEMBL document CHEMBL1201862, “PubChem BioAssay data set” (2004)
Calls of active or inactive are those of the source.

Key:
[1] = A High Throughput Confirmatory Assay used to Identify Novel Compounds that Inhibit Mycobacterium Tuberculosis in the absence of Glycerol.; type: functional
[2] = microbe, parasite or virus in culture; type: functional; settings: Mycobacterium tuberculosis
[3] = molecular target: Estrogen receptor beta (Homo sapiens, UniProt Q92731); assay: blockers of SRC-3 recruitment to ERβ – biochemical, ELISA, streptavidin-HRP readout, orthogonal assay, confirmation (AID 1060)
[4] = cells; type: functional
[5] = cells
[6] = molecular target: Peroxisome proliferator-activated receptor gamma/Nuclear receptor corepressor 2 (Homo sapiens, UniProt P37231+Q9Y618); type: functional
[7] = molecular target: Major prion protein (Homo sapiens, UniProt P04156); type: functional, cell-based
[8] = molecular target: Photoreceptor-specific nuclear receptor (Homo sapiens, UniProt Q9Y5X4); type: functional;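 also: potency for compounds that break the NR2E3 corepressor complex and count as activators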
[9] = test system: H4; assay: Luminescence Cell-Based Dose Response HTS to Identify Activators of 5'UTR Stem-Loop Driven Prion Protein mRNA Translation in H4 Neuroglioblastoma Cells. [Related pubchem assays: 1829 (Project Summary), 1814 (Primary HTS)]; type: functional; settings: Homo sapiens
[10] = Luminescence Cell-Based Dose Response to Identify Activators of Luciferase Translation or Activity in H4-C Neuroglioblastoma Cells. [Related pubchem assays: 1829 (Project Summary), 1814 (Primary HTS)]; type: functional
[11] = Luminescence Cell-Based Dose Response to Identify Activators of 5'UTR Stem-Loop Driven Prion Protein mRNA Translation in H4-C Neuroglioblastoma Cells. [Related pubchem assays: 1829 (Project Summary), 1814 (Primary HTS)]; type: functional
[12] = Luminescence Cell-Based Dose Confirmation HTS to Identify Activators of 5'UTR Stem-Loop Driven Alpha-Synuclein mRNA Translation in H4 Neuroglioblastoma Cells. [Related pubchem assays: 1829 (Project Summary), 1814 (Primary HTS)]; type: functional
[13] = Luminescence Cell-Based Dose Response HTS to Identify Activators of Luciferase Translation or Activity in H4 […] Cells. [Related pubchem assays: 1829 (Project Summary), 1814 (Primary HTS)]; type: functional
[14] = Luminescence Cell-Based Dose Confirmation to Identify Activators of 5'UTR Stem-Loop Driven Alpha-Synuclein mRNA Translation in H4 Neuroglioblastoma Cells. [Related pubchem assays: 1829 (Project Summary), 1814 (Primary HTS)]; type: functional
[15] = molecular target: Ubiquitin carboxyl-terminal hydrolase BAP1 (Homo sapiens, UniProt Q92560); assay: inhibition of BAP1 ubiquitin hydrolase activity – biochemical, dose response (AID 714); type: functional
[16] = molecular target: Aryl hydrocarbon receptor (Homo sapiens, UniProt P35869); assay: Luminescence-based cell-based high throughput dose response assay for activators of the Aryl Hydrocarbon Receptor (AHR). [Related pubchem assays: 2796 (Primary screen (AHR activators in singlicate)), 2845 (Confirmation screen (AHR activators in triplicate)), 434939 (Counterscreen (PXR activators in triplicate)), 2804 (Summary (AHR activators))]; type: ADME
[17] = molecular target: Procathepsin L (Homo sapiens, UniProt P07711); assay: CTSL1 protease inhibition – biochemical, QFRET, 1536-well, counter-screen for M1/M17 aminopeptidase inhibitor project, dose response (AID 2214)
[18] = molecular target: T1, Leucine aminopeptidase (Plasmodium falciparum 3D7, UniProt Q8IL11); assay: P. falciparum M17LAP inhibitors, primary screen, biochemical, fluorogenic H-Leu-NHMec substrate, 1536-well (AID 1619); type: functional
T1 sequence (Q8IL11 whole entry): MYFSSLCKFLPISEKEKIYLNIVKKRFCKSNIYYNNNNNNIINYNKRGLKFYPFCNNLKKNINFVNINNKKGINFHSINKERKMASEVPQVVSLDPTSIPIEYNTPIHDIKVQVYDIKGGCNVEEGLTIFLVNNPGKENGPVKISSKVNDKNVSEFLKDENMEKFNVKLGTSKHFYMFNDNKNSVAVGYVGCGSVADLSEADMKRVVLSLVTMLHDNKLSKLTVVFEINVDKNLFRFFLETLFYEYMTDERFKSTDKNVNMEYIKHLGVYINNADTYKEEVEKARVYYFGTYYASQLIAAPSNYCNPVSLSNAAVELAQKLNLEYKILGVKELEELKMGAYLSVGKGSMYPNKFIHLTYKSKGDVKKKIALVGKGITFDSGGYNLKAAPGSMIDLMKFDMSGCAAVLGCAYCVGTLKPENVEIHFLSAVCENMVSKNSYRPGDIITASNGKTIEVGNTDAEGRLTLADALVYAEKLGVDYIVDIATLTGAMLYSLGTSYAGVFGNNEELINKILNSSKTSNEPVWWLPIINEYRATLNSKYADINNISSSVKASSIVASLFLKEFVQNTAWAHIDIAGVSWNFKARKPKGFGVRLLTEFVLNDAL

[19] = molecular target: Aspartyl aminopeptidase (Plasmodium falciparum 3D7, UniProt Q8I2J3); assay: Counterscreen for inhibitors of M1 and M17 aminopeptidases: QFRET-based biochemical high throughput dose response assay for inhibitors of the Plasmodium falciparum M18 Aspartyl Aminopeptidase (PFM18AAP). [Related PubChem assays: 1619 (Screening assay (M17LAP inhibitors).), 1445 (Screening assay (M1AAP inhibitors).)]
[20] = molecular target: E3 ubiquitin-protein ligase Mdm2 (Homo sapiens, UniProt Q00987); assay: MDM2-luc reporter signal enhancers, multi-concentration potency testing, MDM2 ubiquitin-protein ligase inhibitor program, whole-cell format, luminescence detection, 384-well microplate (AID 1394); type: functional;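 also: MDM2 E3 inhibitors raise luminescence so EC50 is for signal enhancement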
[21] = molecular target: Melanin-concentrating hormone receptor 1 (Homo sapiens, UniProt Q99705); assay: Fluorescence-based counterscreen for antagonists of the G-protein coupled receptor 7 (GPR7): cell-based high throughput dose response assay to identify antagonists of the melanin-concentrating hormone receptor 1 (MCHR1).; type: functional
[22] = A cytotoxicity screen of small molecule inhibitors of the PhoP region in Salmonella typhi identified in the primary screen. [Related pubchem assays: 1850, 1864, 1985 ]; type: functional
[23] = test system: Staphylococcus aureus; assay: Inhibitors of Bacterial Quorum Sensing Structure Activity Relationship (SAR) Analysis: Dose Response Assay. [Related pubchem assays: 700, 527 ]; type: functional, organism-based
[24] = molecular target: T2, Protein skinhead-1 (Caenorhabditis elegans, UniProt P34707); type: functional
T2 sequence (P34707 whole entry): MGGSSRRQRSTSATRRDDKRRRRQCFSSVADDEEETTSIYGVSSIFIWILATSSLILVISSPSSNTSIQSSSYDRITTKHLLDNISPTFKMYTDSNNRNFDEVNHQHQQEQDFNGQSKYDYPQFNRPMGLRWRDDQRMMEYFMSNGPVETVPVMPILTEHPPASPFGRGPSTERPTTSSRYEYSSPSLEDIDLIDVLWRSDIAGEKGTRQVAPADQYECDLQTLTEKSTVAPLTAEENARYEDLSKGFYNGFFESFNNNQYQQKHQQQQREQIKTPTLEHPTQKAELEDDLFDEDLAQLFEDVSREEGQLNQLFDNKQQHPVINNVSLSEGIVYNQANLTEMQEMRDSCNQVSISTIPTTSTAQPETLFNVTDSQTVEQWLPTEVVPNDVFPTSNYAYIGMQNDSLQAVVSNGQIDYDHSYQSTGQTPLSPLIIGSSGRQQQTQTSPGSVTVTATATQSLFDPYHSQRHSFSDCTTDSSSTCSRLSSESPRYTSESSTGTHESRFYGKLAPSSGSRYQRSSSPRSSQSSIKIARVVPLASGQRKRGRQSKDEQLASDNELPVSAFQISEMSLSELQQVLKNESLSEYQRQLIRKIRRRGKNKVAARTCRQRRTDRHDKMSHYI

[25] = molecular target: T3, Luciferin 4-monooxygenase (Photinus pyralis, UniProt P08659); assay: inhibition of purified Photinus pyralis luciferase – biochemical, luminescence, dose response (AID 1891)
[26] = test system: HT-1080; assay: HT1080 cell viability loss – fluorescence readout (AID 620); type: functional, cell-based; settings: Homo sapiens
[27] = molecular target: T3, Luciferin 4-monooxygenase; assay: Counter Screen for Luciferase-based Assay Positives. [Related pubchem assays: 620, 618, 411 ]
[28] = Luminescence Cell-Based Dose Confirmation HTS to Identify Inhibitors of Platelet Dense Granule Release. [Related pubchem assays: 1663 (Primary HTS), 1678 (Summary of Project)]; type: functional
[29] = molecular target: T4, Mannose-6-phosphate isomerase (Homo sapiens, UniProt P34949); assay: MPI enzyme activity inhibition – biochemical, fluorescence intensity, coupled assay, primary screen (AID 1209)
T4 sequence (P34949 whole entry): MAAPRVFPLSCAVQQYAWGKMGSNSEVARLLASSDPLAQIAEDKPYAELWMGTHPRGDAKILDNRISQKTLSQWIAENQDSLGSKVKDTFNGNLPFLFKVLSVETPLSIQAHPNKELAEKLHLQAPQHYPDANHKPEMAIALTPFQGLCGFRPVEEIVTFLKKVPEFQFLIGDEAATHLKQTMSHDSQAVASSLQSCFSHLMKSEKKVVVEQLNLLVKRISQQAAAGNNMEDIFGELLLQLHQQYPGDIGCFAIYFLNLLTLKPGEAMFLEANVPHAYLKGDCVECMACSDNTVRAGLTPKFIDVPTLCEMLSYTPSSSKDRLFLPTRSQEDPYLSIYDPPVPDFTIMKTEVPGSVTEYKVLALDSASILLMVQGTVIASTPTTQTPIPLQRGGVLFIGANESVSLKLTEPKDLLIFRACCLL

[30] = molecular target: Lytic switch protein BZLF1 (Epstein-Barr virus (strain B95-8) (HHV-4) (Human herpesvirus 4), UniProt P03206); assay: inhibition of BZLF1 ZTA DNA binding – biochemical, fluorescence polarization, Epstein-Barr virus, 1536-well, counter-screen for EBNA-1 inhibitor project, dose response (AID 2377); parameters: species or system human gammaherpesvirus 4;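 also: fluorescence polarization of Cy5-labelled ZRE DNA probe bound by purified Zta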
[31] = molecular target: Epstein-Barr nuclear antigen 1 (Epstein-Barr virus (strain B95-8) (HHV-4) (Human herpesvirus 4), UniProt P03211); assay: inhibition of EBV nuclear antigen 1 DNA binding – biochemical, fluorescence polarization, 1536-well, dose response (AID 2381); parameters: species or system human gammaherpesvirus 4;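 also: fluorescence polarization of a Cy5 DNA probe bound by EBNA-1 protein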
[32] = alpha-synuclein stem-loop luciferase translation blockers – H4 neuroglioma cells, luminescence, confirmation (AID 1988); type: functional, cell-based
[33] = luciferase reporter signal suppression in cells – H4 neuroglioma cells, luminescence, dose response (AID 1990); type: functional, cell-based

Chain of Epstein-Barr nuclear antigen 1 (P03211 whole entry): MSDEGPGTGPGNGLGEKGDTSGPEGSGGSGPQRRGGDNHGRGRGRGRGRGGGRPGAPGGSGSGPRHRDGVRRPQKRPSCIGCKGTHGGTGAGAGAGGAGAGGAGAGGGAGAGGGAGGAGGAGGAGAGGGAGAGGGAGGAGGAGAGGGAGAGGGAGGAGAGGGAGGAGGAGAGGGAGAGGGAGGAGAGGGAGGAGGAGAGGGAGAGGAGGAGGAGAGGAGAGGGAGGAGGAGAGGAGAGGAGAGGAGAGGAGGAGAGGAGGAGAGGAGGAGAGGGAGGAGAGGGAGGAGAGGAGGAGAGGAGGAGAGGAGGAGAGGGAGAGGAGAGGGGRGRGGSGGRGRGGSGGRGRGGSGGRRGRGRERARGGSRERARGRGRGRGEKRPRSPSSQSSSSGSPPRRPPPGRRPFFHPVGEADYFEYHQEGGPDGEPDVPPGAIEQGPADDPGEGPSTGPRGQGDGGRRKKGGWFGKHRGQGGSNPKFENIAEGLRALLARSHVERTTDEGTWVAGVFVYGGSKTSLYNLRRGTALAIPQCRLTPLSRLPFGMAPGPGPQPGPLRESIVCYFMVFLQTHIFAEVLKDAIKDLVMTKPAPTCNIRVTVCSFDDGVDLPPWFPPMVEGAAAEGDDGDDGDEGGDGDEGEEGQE
Chain of Ubiquitin carboxyl-terminal hydrolase BAP1 (Q92560 whole entry): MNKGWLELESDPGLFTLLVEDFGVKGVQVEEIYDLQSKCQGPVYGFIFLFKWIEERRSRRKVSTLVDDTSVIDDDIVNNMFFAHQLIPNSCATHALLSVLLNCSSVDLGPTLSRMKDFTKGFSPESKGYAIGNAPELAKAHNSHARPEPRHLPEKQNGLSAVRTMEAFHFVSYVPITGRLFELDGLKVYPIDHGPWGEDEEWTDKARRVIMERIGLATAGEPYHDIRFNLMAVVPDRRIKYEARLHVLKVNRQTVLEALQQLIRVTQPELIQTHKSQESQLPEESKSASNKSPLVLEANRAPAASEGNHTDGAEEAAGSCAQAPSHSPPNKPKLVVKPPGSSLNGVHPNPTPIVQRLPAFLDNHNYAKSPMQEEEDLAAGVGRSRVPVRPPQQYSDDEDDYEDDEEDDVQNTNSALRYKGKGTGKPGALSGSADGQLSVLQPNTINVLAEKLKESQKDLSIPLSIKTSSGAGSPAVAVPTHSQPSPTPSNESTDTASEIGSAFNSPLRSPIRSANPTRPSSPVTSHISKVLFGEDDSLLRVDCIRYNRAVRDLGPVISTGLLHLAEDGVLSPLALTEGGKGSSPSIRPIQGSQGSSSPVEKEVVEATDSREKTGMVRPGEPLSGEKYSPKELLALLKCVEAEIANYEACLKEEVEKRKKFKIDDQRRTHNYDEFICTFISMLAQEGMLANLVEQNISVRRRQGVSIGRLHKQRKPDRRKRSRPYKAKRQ
T3 sequence (P08659 whole entry): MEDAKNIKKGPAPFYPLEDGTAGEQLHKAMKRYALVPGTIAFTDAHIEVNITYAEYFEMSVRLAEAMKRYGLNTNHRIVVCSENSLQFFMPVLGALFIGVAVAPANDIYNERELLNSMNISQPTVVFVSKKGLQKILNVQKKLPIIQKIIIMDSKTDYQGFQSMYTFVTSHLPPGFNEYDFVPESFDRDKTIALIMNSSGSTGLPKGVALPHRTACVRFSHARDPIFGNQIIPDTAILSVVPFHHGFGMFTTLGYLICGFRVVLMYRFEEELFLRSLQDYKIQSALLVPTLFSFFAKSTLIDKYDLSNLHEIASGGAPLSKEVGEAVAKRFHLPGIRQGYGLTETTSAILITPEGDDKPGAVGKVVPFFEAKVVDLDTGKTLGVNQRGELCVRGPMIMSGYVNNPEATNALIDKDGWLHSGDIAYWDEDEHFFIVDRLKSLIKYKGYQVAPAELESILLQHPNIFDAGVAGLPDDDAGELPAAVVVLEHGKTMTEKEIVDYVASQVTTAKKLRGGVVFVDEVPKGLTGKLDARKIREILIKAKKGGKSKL
Chain of Aryl hydrocarbon receptor (P35869 whole entry): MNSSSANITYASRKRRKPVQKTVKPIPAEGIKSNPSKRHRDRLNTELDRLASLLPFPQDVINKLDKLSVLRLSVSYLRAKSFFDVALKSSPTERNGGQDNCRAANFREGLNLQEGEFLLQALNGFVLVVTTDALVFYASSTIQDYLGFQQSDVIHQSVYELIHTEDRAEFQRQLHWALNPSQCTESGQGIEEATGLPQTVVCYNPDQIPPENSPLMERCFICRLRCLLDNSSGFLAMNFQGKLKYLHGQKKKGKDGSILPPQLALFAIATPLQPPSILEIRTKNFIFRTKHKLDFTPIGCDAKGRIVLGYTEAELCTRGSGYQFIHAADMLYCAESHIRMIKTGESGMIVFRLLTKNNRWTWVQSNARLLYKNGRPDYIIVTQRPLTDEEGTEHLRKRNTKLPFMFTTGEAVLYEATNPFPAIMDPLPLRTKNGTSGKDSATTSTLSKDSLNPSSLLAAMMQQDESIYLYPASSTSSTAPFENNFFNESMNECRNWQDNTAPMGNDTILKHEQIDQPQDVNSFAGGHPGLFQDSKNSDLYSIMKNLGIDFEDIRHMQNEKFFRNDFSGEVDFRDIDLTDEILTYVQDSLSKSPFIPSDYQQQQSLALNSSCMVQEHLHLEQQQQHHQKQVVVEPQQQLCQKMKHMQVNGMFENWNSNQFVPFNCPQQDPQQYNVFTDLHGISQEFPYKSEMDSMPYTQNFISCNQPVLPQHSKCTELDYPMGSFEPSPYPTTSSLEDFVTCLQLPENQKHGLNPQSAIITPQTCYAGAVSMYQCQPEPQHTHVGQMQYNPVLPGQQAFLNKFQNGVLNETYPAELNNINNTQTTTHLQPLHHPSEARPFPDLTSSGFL
Chain of Lytic switch protein BZLF1 (P03206 whole entry): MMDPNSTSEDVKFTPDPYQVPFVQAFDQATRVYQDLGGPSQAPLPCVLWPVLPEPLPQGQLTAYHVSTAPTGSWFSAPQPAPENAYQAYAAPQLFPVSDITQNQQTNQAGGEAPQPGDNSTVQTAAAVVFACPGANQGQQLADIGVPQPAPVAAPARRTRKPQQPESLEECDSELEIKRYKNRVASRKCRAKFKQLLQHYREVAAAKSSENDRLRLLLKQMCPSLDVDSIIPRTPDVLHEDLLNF
Chain of E3 ubiquitin-protein ligase Mdm2 (Q00987 whole entry): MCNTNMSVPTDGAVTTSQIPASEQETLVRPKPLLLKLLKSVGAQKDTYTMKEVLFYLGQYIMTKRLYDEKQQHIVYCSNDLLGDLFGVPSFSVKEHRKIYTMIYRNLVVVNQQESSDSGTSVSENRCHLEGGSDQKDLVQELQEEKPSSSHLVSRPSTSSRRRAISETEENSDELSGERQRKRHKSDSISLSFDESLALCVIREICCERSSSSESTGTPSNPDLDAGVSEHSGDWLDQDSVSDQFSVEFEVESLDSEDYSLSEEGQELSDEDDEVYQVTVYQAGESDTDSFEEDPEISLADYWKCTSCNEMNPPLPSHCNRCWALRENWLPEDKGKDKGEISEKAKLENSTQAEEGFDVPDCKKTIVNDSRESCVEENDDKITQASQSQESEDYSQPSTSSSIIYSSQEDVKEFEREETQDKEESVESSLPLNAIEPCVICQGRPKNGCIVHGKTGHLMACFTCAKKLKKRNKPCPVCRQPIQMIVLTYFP
Chain of Procathepsin L (P07711 whole entry): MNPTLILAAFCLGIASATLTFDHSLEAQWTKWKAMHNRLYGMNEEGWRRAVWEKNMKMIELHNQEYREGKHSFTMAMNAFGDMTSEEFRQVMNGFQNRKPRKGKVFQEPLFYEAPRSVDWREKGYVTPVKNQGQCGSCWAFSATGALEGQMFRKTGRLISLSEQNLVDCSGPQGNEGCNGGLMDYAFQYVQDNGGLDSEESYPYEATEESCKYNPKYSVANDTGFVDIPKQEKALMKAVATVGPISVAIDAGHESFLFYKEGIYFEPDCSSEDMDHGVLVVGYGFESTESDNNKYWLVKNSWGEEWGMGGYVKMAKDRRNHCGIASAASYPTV
Chain of Melanin-concentrating hormone receptor 1 (Q99705 whole entry): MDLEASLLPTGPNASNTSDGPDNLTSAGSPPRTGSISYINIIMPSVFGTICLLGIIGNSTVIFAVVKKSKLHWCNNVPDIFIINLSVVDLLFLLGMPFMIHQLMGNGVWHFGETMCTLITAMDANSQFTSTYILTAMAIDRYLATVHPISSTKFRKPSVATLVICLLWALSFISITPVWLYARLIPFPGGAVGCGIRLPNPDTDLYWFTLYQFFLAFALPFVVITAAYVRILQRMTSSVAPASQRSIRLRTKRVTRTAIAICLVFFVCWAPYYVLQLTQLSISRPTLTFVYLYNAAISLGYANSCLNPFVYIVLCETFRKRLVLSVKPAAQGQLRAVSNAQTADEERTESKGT
Chain of Aspartyl aminopeptidase (Q8I2J3 whole entry): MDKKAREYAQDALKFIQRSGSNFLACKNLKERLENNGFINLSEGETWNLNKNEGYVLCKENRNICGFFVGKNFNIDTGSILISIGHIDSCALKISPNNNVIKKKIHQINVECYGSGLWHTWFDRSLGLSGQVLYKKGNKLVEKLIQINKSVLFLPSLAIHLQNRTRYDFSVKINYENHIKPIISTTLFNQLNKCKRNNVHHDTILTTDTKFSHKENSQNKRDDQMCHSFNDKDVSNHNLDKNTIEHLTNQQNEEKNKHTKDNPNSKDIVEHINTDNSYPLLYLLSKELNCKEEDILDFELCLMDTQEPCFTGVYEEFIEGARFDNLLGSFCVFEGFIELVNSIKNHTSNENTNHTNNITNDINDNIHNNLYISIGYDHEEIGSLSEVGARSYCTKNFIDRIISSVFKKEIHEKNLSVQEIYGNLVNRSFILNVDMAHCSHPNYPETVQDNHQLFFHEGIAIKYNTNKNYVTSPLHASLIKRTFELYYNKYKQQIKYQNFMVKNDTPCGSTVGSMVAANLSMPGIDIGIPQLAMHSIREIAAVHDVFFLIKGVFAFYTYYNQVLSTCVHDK

O=C1NCC(c2ccccc2)C1C(=O)N/N=C\c1ccc(-c2ccc(Cl)c(Cl)c2)o1 (centres undefined)
IC50 [1]: > 100 µM (active) | CC50 [2]: > 40 µM (active)

Fc1ccc(CSc2ncnc3c2oc2ccccc23)cc1
IC50 [3]: > 50 µM (not active)

CCCCCC1CC(CC(=O)NC(=S)Nc2ccc([N+](=O)[O-])cc2)C(=O)O1 (centres undefined)
IC50 [1]: > 100 µM (active) | IC50 [4]: 20.3 µM (active)

Brc1cc(Br)c2ncnc(N3CCCCC3)c2c1
IC50 [5]: > 138 µM (inactive) | IC50 [6]: 2.36 µM (active) | IC50 [7]: 1.38 µM (active) | IC50 [8]: 1.42 µM (active)

Cc1oc2cc3c(C(=O)N4CCCCC4)c(C)oc3cc2c1C(=O)N1CCCCC1
EC50 [9]: > 120 µM (not active) | EC50 [10]: 0.573 µM (active) | EC50 [11]: > 12 µM (not active) | EC50 [12]: < 0.1 µM (active) | EC50 [13]: 12.2 µM (active) | EC50 [14]: 0.598 µM (active)

COc1ccc(NC(=O)c2c(NC(=O)CNCc3ccco3)sc3c2CCC3)c(OC)c1
IC50 [15]: 35.8 µM (not active)

COc1ccc(Cl)cc1C(=O)Nc1ccc(N(C)C(C)=O)cc1
EC50 [16]: 2.81 µM (active)

CC(C)c1ccc(NC(=O)C2CCCCC2C(=O)O)cc1 (centres undefined)
IC50 [17]: > 59.6 µM (not active) | IC50 [18]: 3.51 µM (active) | IC50 [19]: > 73.5 µM (not active)

O=C(Nc1ccc(F)cc1)c1ccccc1S(=O)(=O)c1ccccc1[N+](=O)[O-]
EC50 [20]: 0.53 µM (not active)

Cc1cc(=O)oc2cc(OC(=O)c3ccccc3)ccc12
IC50 [21]: > 43.8 µM (not active)

Cc1cc(C(=O)CSc2nc3ccccc3o2)c(C)n1CC1CCCO1 (centres undefined)
EC50 [9]: < 0.1 µM (active) | EC50 [10]: 0.231 µM (active) | EC50 [11]: 0.323 µM (active) | EC50 [14]: 0.21 µM (active)

Cc1cc(C)c[n+](CC(=O)c2ccc(NC(=O)c3ccccc3)cc2)c1
EC50 [22]: > 50 µM (active)

Cc1ccc(Cl)c(Nc2ccccc2C(=O)O)c1Cl [MECLOFENAMIC ACID]
IC50 [23]: 0.877 µM (active)

CN(C)c1ccc(N/C=C/C(=O)c2ccco2)cc1
IC50 [24]: 76.5 µM (inactive) | EC50 [25]: 1.9 µM (active) | EC50 [26]: > 50 µM (not active) | EC50 [27]: < 0.2 µM (active) | EC50 [28]: 0.891 µM (active)

CCCCCC1(C)NC(=S)N(c2ccccc2)N1 (centres undefined)
IC50 [29]: > 50 µM (not active)

COc1ccccc1CNC(=O)c1ccc2nc3[nH]c4ccccc4c3nc2c1
IC50 [30]: > 111 µM (not active) | IC50 [31]: 14.4 µM (not active)

O=S(=O)(c1cccc(S(=O)(=O)N2CCC(n3nnc4ccccc43)CC2)c1)N1CCCCC1
IC50 [15]: 18.3 µM (active)

O=C(CCCCCNc1nc(S)nc2ccccc12)NCCc1ccc(Cl)cc1
IC50 [30]: > 111 µM (not active) | IC50 [31]: 13.4 µM (not active)

COCC(=O)N1CCc2ccc(NC(=O)c3ccc(C(F)(F)F)cc3)cc2C1
EC50 [16]: > 1.13 µM (active)

Cc1cc(C)c(S(=O)(=O)c2ccccc2)c(OC(=O)c2cc(F)c(F)cc2Cl)n1
EC50 [20]: 186 µM (not active)

CCN(CC)S(=O)(=O)c1ccc(/C(O)=C(\C#N)c2nc3ccccc3n2C)cc1
EC50 [22]: > 50 µM (active) | EC50 [32]: > 120 µM (not active) | EC50 [33]: > 120 µM (not active)
